Reference: patent US11053204B2, “Pyrimidinyloxy benzene derivatives as herbicides” (FMC Corporation, priority 2015, dated 2021)

How the values were obtained:
Assay type in all cases: in vivo
[1] = system: Italian ryegrass (Lolium multiflorum); test: Test A preemergence, visual injury rating; conditions: for Plant response rating, Ryegrass, Italian: 31 g ai/ha, 0 to 100 scale, 0 no effect, 100 complete control; for Ryegrass, Italian plant response rating: 125 g ai/ha, 0 to 100 scale (0 no effect, 100 complete control)
In short: (§1)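 Injury scores run from 0, no effect, to 100, complete control, judged by eye against untreated plants roughly 10 days after treatment. Chemicals carried a surfactant in a non-phytotoxic solvent and went onto loam–sand soil preemergence or onto one- to two-leaf seedlings postemergence.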

[2] = system: barnyardgrass (Echinochloa crus-galli); test: Test A preemergence, visual injury rating; conditions: for Plant response rating, Barnyardgrass: 31 g ai/ha, 0 to 100 scale, 0 no effect, 100 complete control; for Barnyardgrass plant response rating: 125 g ai/ha, 0 to 100 scale (0 no effect, 100 complete control)
In short: as §1

[3] = system: giant foxtail (Setaria faberii); test: Test A preemergence, visual injury rating; conditions: for Plant response rating, Foxtail, Giant: 31 g ai/ha, 0 to 100 scale, 0 no effect, 100 complete control; for Foxtail, Giant plant response rating: 125 g ai/ha, 0 to 100 scale (0 no effect, 100 complete control)
In short: as §1

kochia (Kochia scoparia) [4] = test: Test A preemergence, visual injury rating; conditions: for Plant response rating, Kochia: 31 g ai/ha, 0 to 100 scale, 0 no effect, 100 complete control; for Kochia plant response rating: 125 g ai/ha, 0 to 100 scale (0 no effect, 100 complete control)
In short: as §1

[5] = system: pigweed (Amaranthus retroflexus); test: Test A preemergence, visual injury rating; conditions: for Plant response rating, Pigweed: 31 g ai/ha, 0 to 100 scale, 0 no effect, 100 complete control; for Pigweed plant response rating: 125 g ai/ha, 0 to 100 scale (0 no effect, 100 complete control)
In short: as §1

[6] = system: ragweed (common ragweed, Ambrosia elatior); test: Test A preemergence, visual injury rating; conditions: for Plant response rating, Ragweed: 31 g ai/ha, 0 to 100 scale, 0 no effect, 100 complete control; for Ragweed plant response rating: 125 g ai/ha, 0 to 100 scale (0 no effect, 100 complete control)
In short: as §1

[7] = system: Italian ryegrass (Lolium multiflorum); test: Test A postemergence, visual injury rating; conditions: 0 to 100 scale, 0 is no effect, 100 is complete control, approximately 10 days
In short: as §1

[8] = system: barnyardgrass (Echinochloa crus-galli); test: Test A postemergence, visual injury rating; conditions: 0 is no effect, 100 is complete control; for Barnyardgrass plant response rating: 31 g ai/ha, 0 to 100 scale, approximately 10 days; for Barnyardgrass plant response rating (0 to 100 scale): 125 g ai/ha
In short: as §1

[9] = system: blackgrass (Alopecurus myosuroides); test: Test A postemergence, visual injury rating; conditions: 0 is no effect, 100 is complete control; for Blackgrass plant response rating: 31 g ai/ha, 0 to 100 scale, approximately 10 days; for Blackgrass plant response rating (0 to 100 scale): 125 g ai/ha
In short: as §1

corn (Zea mays) = test: Test A postemergence, visual injury rating; conditions: 0 is no effect, 100 is complete control; for Corn plant response rating: 31 g ai/ha, 0 to 100 scale, approximately 10 days; for Corn plant response rating (0 to 100 scale): 125 g ai/ha
In short: as §1

[10] = system: galium (catchweed bedstraw, Galium aparine); test: Test A postemergence, visual injury rating; conditions: 0 is no effect, 100 is complete control; for Galium plant response rating: 31 g ai/ha, 0 to 100 scale, approximately 10 days; for Galium plant response rating (0 to 100 scale): 125 g ai/ha
In short: as §1

[11] = system: giant foxtail (Setaria faberii); test: Test A postemergence, visual injury rating; conditions: 0 is no effect, 100 is complete control; for Foxtail, Giant plant response rating: 31 g ai/ha, 0 to 100 scale, approximately 10 days; for Foxtail, Giant plant response rating (0 to 100 scale): 125 g ai/ha
In short: as §1

kochia (Kochia scoparia) [12] = test: Test A postemergence, visual injury rating; conditions: 0 to 100 scale, 0 is no effect, 100 is complete control, approximately 10 days
In short: as §1

[13] = system: pigweed (Amaranthus retroflexus); test: Test A postemergence, visual injury rating; conditions: 0 to 100 scale, 0 is no effect, 100 is complete control, approximately 10 days
In short: as §1

[14] = system: ragweed (common ragweed, Ambrosia elatior); test: Test A postemergence, visual injury rating; conditions: 0 to 100 scale, 0 is no effect, 100 is complete control, approximately 10 days
In short: as §1

[15] = system: wheat (Triticum aestivum); test: Test A postemergence, visual injury rating; conditions: 0 to 100 scale, 0 is no effect, 100 is complete control, approximately 10 days
In short: as §1

[16] = system: barnyardgrass (Echinochloa crus-galli); test: Test B flooded paddy test, plant response rating; conditions: 250 g ai/ha; Flood; scale of 0 to 100 where 0 is no effect and 100 is complete control; 13 to 15 days
In short: (§2)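 Under a constant 3 cm flood, test compounds went directly into the paddy water. Following 13 to 15 days of greenhouse growth, treated species and controls were compared by eye.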

[17] = system: ducksalad (Heteranthera limosa); test: Test B flooded paddy test, plant response rating; conditions: 250 g ai/ha; Flood; scale of 0 to 100 where 0 is no effect and 100 is complete control; 13 to 15 days
In short: as §2

rice (Oryza sativa) = test: Test B flooded paddy test, plant response rating; conditions: 250 g ai/ha; Flood; scale of 0 to 100 where 0 is no effect and 100 is complete control; 13 to 15 days
In short: as §2

[18] = system: sedge, umbrella (small-flower umbrella sedge, Cyperus difformis); test: Test B flooded paddy test, plant response rating; conditions: 250 g ai/ha; Flood; scale of 0 to 100 where 0 is no effect and 100 is complete control; 13 to 15 days
In short: as §2

Compound: CC(=NOC(C)C)c1c(C#N)cccc1Oc1ncc(Cl)cn1 [Compound 69]
- Plant response rating, Ryegrass, Italian [1]: 0
- Ryegrass, Italian plant response rating [1]: 0
- Plant response rating, Barnyardgrass [2]: 70
- Barnyardgrass plant response rating [2]: 90
- Plant response rating, Foxtail, Giant [3]: 40
- Foxtail, Giant plant response rating [3]: 70
- Plant response rating, Kochia (kochia (Kochia scoparia) [4]): 0
- Kochia plant response rating (kochia (Kochia scoparia) [4]): 30
- Plant response rating, Pigweed [5]: 40
- Pigweed plant response rating [5]: 100
- Plant response rating, Ragweed [6]: 0
- Ragweed plant response rating [6]: 0
- Ryegrass, Italian plant response rating ([7]; 31 g ai/ha): 0
- Ryegrass, Italian plant response rating ([7]; 125 g ai/ha): 0
- Barnyardgrass plant response rating [8]: 10
- Barnyardgrass plant response rating (0 to 100 scale) [8]: 70
- Blackgrass plant response rating [9]: 10
- Blackgrass plant response rating (0 to 100 scale) [9]: 30
- Corn plant response rating (corn (Zea mays)): 0
- Corn plant response rating (0 to 100 scale) (corn (Zea mays)): 20
- Galium plant response rating [10]: 40
- Galium plant response rating (0 to 100 scale) [10]: 60
- Foxtail, Giant plant response rating [11]: 20
- Foxtail, Giant plant response rating (0 to 100 scale) [11]: 30
- Kochia plant response rating (kochia (Kochia scoparia) [12]; 31 g ai/ha): 20
- Kochia plant response rating (kochia (Kochia scoparia) [12]; 125 g ai/ha): 40
- Pigweed plant response rating ([13]; 31 g ai/ha): 40
- Pigweed plant response rating ([13]; 125 g ai/ha): 80
- Ragweed plant response rating ([14]; 31 g ai/ha): 0
- Ragweed plant response rating ([14]; 125 g ai/ha): 0
- Wheat plant response rating ([15]; 31 g ai/ha): 0
- Wheat plant response rating ([15]; 125 g ai/ha): 0
- Plant response rating, Barnyardgrass [16]: 0
- Plant response rating, Ducksalad [17]: 75
- Plant response rating, Rice (rice (Oryza sativa)): 20
- Plant response rating, Sedge, Umbrella [18]: 80

Compound: CCCSC(=O)c1c(Br)cccc1Oc1ncc(Cl)cn1 [Compound 70]
- Plant response rating, Ryegrass, Italian [1]: 0
- Ryegrass, Italian plant response rating [1]: 0
- Plant response rating, Barnyardgrass [2]: 0
- Barnyardgrass plant response rating [2]: 20
- Plant response rating, Foxtail, Giant [3]: 0
- Foxtail, Giant plant response rating [3]: 60
- Plant response rating, Kochia (kochia (Kochia scoparia) [4]): 0
- Kochia plant response rating (kochia (Kochia scoparia) [4]): 0
- Plant response rating, Pigweed [5]: 0
- Pigweed plant response rating [5]: 0
- Plant response rating, Ragweed [6]: 0
- Ragweed plant response rating [6]: 0
- Ryegrass, Italian plant response rating ([7]; 31 g ai/ha): 0
- Ryegrass, Italian plant response rating ([7]; 125 g ai/ha): 20
- Barnyardgrass plant response rating [8]: 0
- Barnyardgrass plant response rating (0 to 100 scale) [8]: 30
- Blackgrass plant response rating [9]: 0
- Blackgrass plant response rating (0 to 100 scale) [9]: 20
- Corn plant response rating (corn (Zea mays)): 10
- Corn plant response rating (0 to 100 scale) (corn (Zea mays)): 10
- Galium plant response rating [10]: 30
- Galium plant response rating (0 to 100 scale) [10]: 70
- Foxtail, Giant plant response rating [11]: 0
- Foxtail, Giant plant response rating (0 to 100 scale) [11]: 30
- Kochia plant response rating (kochia (Kochia scoparia) [12]; 31 g ai/ha): 20
- Kochia plant response rating (kochia (Kochia scoparia) [12]; 125 g ai/ha): 70
- Pigweed plant response rating ([13]; 31 g ai/ha): 10
- Pigweed plant response rating ([13]; 125 g ai/ha): 20
- Ragweed plant response rating ([14]; 31 g ai/ha): 0
- Ragweed plant response rating ([14]; 125 g ai/ha): 20
- Wheat plant response rating ([15]; 31 g ai/ha): 0
- Wheat plant response rating ([15]; 125 g ai/ha): 0
- Plant response rating, Barnyardgrass [16]: 0
- Plant response rating, Ducksalad [17]: 70
- Plant response rating, Rice (rice (Oryza sativa)): 0
- Plant response rating, Sedge, Umbrella [18]: 80

Compound: O=C(SCCC(F)(F)F)c1c(Br)cccc1Oc1ncc(Cl)cn1 [Compound 71]
- Plant response rating, Ryegrass, Italian [1]: 0
- Ryegrass, Italian plant response rating [1]: 0
- Plant response rating, Barnyardgrass [2]: 0
- Barnyardgrass plant response rating [2]: 10
- Plant response rating, Foxtail, Giant [3]: 40
- Foxtail, Giant plant response rating [3]: 100
- Plant response rating, Kochia (kochia (Kochia scoparia) [4]): 0
- Kochia plant response rating (kochia (Kochia scoparia) [4]): 0
- Plant response rating, Pigweed [5]: 0
- Pigweed plant response rating [5]: 40
- Plant response rating, Ragweed [6]: 0
- Ragweed plant response rating [6]: 0
- Ryegrass, Italian plant response rating ([7]; 31 g ai/ha): 0
- Ryegrass, Italian plant response rating ([7]; 125 g ai/ha): 20
- Barnyardgrass plant response rating [8]: 0
- Barnyardgrass plant response rating (0 to 100 scale) [8]: 40
- Blackgrass plant response rating [9]: 10
- Blackgrass plant response rating (0 to 100 scale) [9]: 30
- Corn plant response rating (corn (Zea mays)): 10
- Corn plant response rating (0 to 100 scale) (corn (Zea mays)): 20
- Galium plant response rating [10]: 30
- Galium plant response rating (0 to 100 scale) [10]: 90
- Foxtail, Giant plant response rating [11]: 10
- Foxtail, Giant plant response rating (0 to 100 scale) [11]: 40
- Kochia plant response rating (kochia (Kochia scoparia) [12]; 31 g ai/ha): 10
- Kochia plant response rating (kochia (Kochia scoparia) [12]; 125 g ai/ha): 50
- Pigweed plant response rating ([13]; 31 g ai/ha): 30
- Pigweed plant response rating ([13]; 125 g ai/ha): 70
- Ragweed plant response rating ([14]; 31 g ai/ha): 0
- Ragweed plant response rating ([14]; 125 g ai/ha): 20
- Wheat plant response rating ([15]; 31 g ai/ha): 0
- Wheat plant response rating ([15]; 125 g ai/ha): 0
- Plant response rating, Barnyardgrass [16]: 0
- Plant response rating, Ducksalad [17]: 90
- Plant response rating, Rice (rice (Oryza sativa)): 0
- Plant response rating, Sedge, Umbrella [18]: 95
